Each structure is given as a SMILES string.

The subject of the assay is Mast cell. As to the kind of experiment: Antiinflammatory activity in Wistar rat peritoneal mast cells assessed as inhibition of concanavalin A-induced histamine release treated 10 mins before concanavalin A challenge measured after 30 mins. Format: functional.

`COc1ccc2c(c1)OC(O)C(=O)N2` (racemic): the ID50 is given as 6 ×10⁻⁵ M.

On to `O=C(O)[C@H]1O[C@@H](Oc2cc3oc(-c4ccccc4)cc(=O)c3c(O)c2O)[C@H](O)[C@@H](O)[C@@H]1O` [BAICALIN], for which the ID50 was 3 ×10⁻⁶ M. Turning to `COc1ccc2[nH]c(=O)oc2c1` [COIXOL], the ID50 is on record as 1 ×10⁻³ M. For `C[C@]12CCC(=O)C=C1CC[C@@H]1[C@@H]2[C@@H](O)C[C@@]2(C)[C@H]1CC[C@]2(O)C(=O)CO` [HYDROCORTISONE] the value was 5 ×10⁻⁵ M; for `COc1ccc2c(c1)c(CC(=O)O)c(C)n2C(=O)c1ccc(Cl)cc1` [INDOMETHACIN], 8 ×10⁻⁴ M.

Source of the values: ChEMBL document CHEMBL1150743, “Anti-inflammatory activity of benzoxazinoids from roots of Coix lachryma-jobi var. ma-yuen” (1988).
